Assay results as given in patent publication US12139520B2 (priority 2020, dated 2024).
Bridge positions count the residues as written; N and C are the ends. Square brackets hold non-standard residues; d marks the D form. Peptide text beside a SMILES is read from it. Hyp = O=C(O)[C@@H]1C[C@@H](O)CN1

assay: Physical stability of peptide analogues (Thioflavin T fibrillation); format: physicochemical; settings: maximum ThT signal normalized between hAMY maximum and buffer background; 40° C., shaking, four days; pH 7 per table title
Procedure: General Protocols for Determination of Physical Stability of Peptide Analogues
Peptides were dissolved in buffers (50 mM sodium acetate at pH 4 or 50 mM sodium phosphate at pH 7) and incubated for one hour. The samples were then divided into two replicates of 80 μl in a black 384 well plate (μ-clear, Greiner Bio-One) and mixed with Thioflavin T (ThT) to a final concentration of 4 μM. The plate was sealed and placed in a plate reader (CLARIOstar, BMG) where the temperature was set at 40° C. during the course of the experiment. The samples were further stressed by shaking the plate at 700 rpm (linear) for five minutes before every measurement. The fluorescence was measured every 10 min for four days by exciting the ThT at 450 nm and measuring the emission at 480 nm. For each peptide, the ThT signal over time was smoothened using Local Polynomial Regression fitting (LOESS) as implemented in the statistical programming environment R. For the smoothened data, the maximum ThT signal was normalized in percent between the maximum ThT signal for hAMY and the buffer background.

SMILES	Max ThT signal (%)
CC[C@H](C)[C@H](NC(=O)[C@H](CCC(N)=O)NC(=O)[C@H](Cc1c[nH]cn1)NC(=O)[C@H](C)NC(=O)[C@H](CC(C)C)NC(=O)[C@H](CCCNC(=N)N)NC(=O)[C@H](CCC(N)=O)NC(=O)[C@@H](NC(=O)[C@@H](NC(=O)[C@@H]1CSSC[C@H](NC(=O)CN)C(=O)N[C@@H](CCCNC(=N)N)C(=O)N[C@@H]([C@@H](C)O)C(=O)NCC(=O)N[C@@H]([C@@H](C)O)C(=O)N1)[C@@H](C)O)C(C)C)C(=O)N[C@@H](Cc1ccc(O)cc1)C(=O)N[C@@H](CCC(N)=O)C(=O)N[C@@H](Cc1ccccc1)C(=O)N[C@H](C(=O)N[C@@H](CC(=O)O)C(=O)N[C@@H](CCCCN)C(=O)N[C@@H](Cc1ccccc1)C(=O)N[C@@H](CCCCN)C(=O)N[C@@H](CC(=O)O)C(=O)N[C@@H](CC(N)=O)C(=O)N[C@H](C(=O)N[C@@H](C)C(=O)N1CCC[C@H]1C(=O)N[C@@H](CCCNC(=N)N)C(=O)N[C@@H](CO)C(=O)N[C@@H](CCCCN)C(=O)N[C@H](C(=O)N[C@@H](CO)C(=O)N1CCC[C@H]1C(=O)N[C@@H](CCC(N)=O)C(=O)N[C@@H](Cc1ccccc1)C(=O)N1C[C@H](O)C[C@H]1C(N)=O)[C@@H](C)CC)C(C)C)[C@@H](C)O [compound 211] (H-GCRTGTCTVQRLAHQIYQFTDKFKDNVAPRSKISPQF[Hyp]-NH2; disulfide 2-7; N-terminus assumed)	5.200
CC[C@H](C)[C@H](NC(=O)[C@H](CCC(N)=O)NC(=O)[C@H](Cc1c[nH]cn1)NC(=O)[C@H](C)NC(=O)[C@H](CC(C)C)NC(=O)[C@H](CCCNC(=N)N)NC(=O)[C@H](CCC(N)=O)NC(=O)[C@@H](NC(=O)[C@@H](NC(=O)[C@@H]1CSSC[C@H](NC(=O)CN)C(=O)N[C@@H](CCCNC(=N)N)C(=O)N[C@@H]([C@@H](C)O)C(=O)NCC(=O)N[C@@H]([C@@H](C)O)C(=O)N1)[C@@H](C)O)C(C)C)C(=O)N[C@@H](Cc1ccc(O)cc1)C(=O)N[C@@H](CCC(N)=O)C(=O)N[C@@H](Cc1ccccc1)C(=O)N[C@H](C(=O)N[C@@H](CC(=O)O)C(=O)N[C@@H](CCCCN)C(=O)N[C@@H](Cc1ccccc1)C(=O)N[C@@H](CCCCN)C(=O)N[C@@H](CC(=O)O)C(=O)N[C@@H](CC(N)=O)C(=O)N[C@H](C(=O)N[C@@H](C)C(=O)N1CCC[C@H]1C(=O)N[C@@H](CCCNC(=N)N)C(=O)N[C@@H](CO)C(=O)N[C@@H](CCCCN)C(=O)N[C@H](C(=O)N[C@@H](CO)C(=O)N1CCC[C@H]1C(=O)N[C@@H](CCC(N)=O)C(=O)N[C@H](C(=O)N1CCC[C@H]1C(N)=O)[C@@H](C)O)[C@@H](C)CC)C(C)C)[C@@H](C)O [compound 235] (H-GCRTGTCTVQRLAHQIYQFTDKFKDNVAPRSKISPQTP-NH2; disulfide 2-7; N-terminus assumed)	0.800
CC[C@H](C)[C@H](NC(=O)[C@H](CCC(N)=O)NC(=O)[C@H](Cc1c[nH]cn1)NC(=O)[C@H](C)NC(=O)[C@H](CC(C)C)NC(=O)[C@H](CCCNC(=N)N)NC(=O)[C@H](CCC(N)=O)NC(=O)[C@@H](NC(=O)[C@@H](NC(=O)[C@@H]1CSSC[C@H](NC(=O)[C@@H](N)CCCCN)C(=O)N[C@@H](CC(N)=O)C(=O)N[C@@H]([C@@H](C)O)C(=O)N[C@@H](C)C(=O)N[C@@H]([C@@H](C)O)C(=O)N1)[C@@H](C)O)C(C)C)C(=O)N[C@@H](Cc1ccc(O)cc1)C(=O)N[C@@H](CCC(N)=O)C(=O)N[C@@H](Cc1ccccc1)C(=O)N[C@H](C(=O)N[C@@H](CCCCN)C(=O)N[C@@H](CC(=O)O)C(=O)N[C@@H](CCCCN)C(=O)N[C@@H](CC(=O)O)C(=O)N[C@@H](CC(N)=O)C(=O)N[C@H](C(=O)N[C@@H](C)C(=O)N1CCC[C@H]1C(=O)N1CCC[C@H]1C(=O)N[C@H](C(=O)N[C@@H](CC(N)=O)C(=O)N[C@H](C(=O)NCC(=O)N[C@@H](CO)C(=O)N[C@@H](CC(N)=O)C(=O)NCC(=O)N1C[C@H](O)C[C@H]1C(N)=O)C(C)C)[C@@H](C)O)C(C)C)[C@@H](C)O [compound 29] (H-KCNTATCTVQRLAHQIYQFTKDKDNVAPPTNVGSNG[Hyp]-NH2; disulfide 2-7; N-terminus assumed)	9.300
CC[C@H](C)[C@H](NC(=O)[C@H](CCC(N)=O)NC(=O)[C@H](Cc1c[nH]cn1)NC(=O)[C@H](C)NC(=O)[C@H](CC(C)C)NC(=O)[C@H](Cc1c[nH]c2ccccc12)NC(=O)[C@H](CCC(N)=O)NC(=O)[C@@H](NC(=O)[C@@H](NC(=O)[C@@H]1CSSC[C@H](NC(=O)CN)C(=O)N[C@@H](CCCNC(=N)N)C(=O)N[C@@H](Cc2ccccc2)C(=O)NCC(=O)N[C@@H]([C@@H](C)O)C(=O)N1)[C@@H](C)O)C(C)C)C(=O)N[C@@H](Cc1ccc(O)cc1)C(=O)N[C@@H](CCC(N)=O)C(=O)N[C@@H](Cc1ccccc1)C(=O)N[C@H](C(=O)N[C@@H](CC(=O)O)C(=O)N[C@@H](CCCCN)C(=O)N[C@@H](CC(=O)O)C(=O)N[C@@H](CCCCN)C(=O)N[C@@H](CC(=O)O)C(=O)N[C@@H](CC(N)=O)C(=O)N[C@H](C(=O)N[C@@H](C)C(=O)N1CCC[C@H]1C(=O)N[C@@H](CCCNC(=N)N)C(=O)N[C@H](C(=O)N[C@@H](CCCCN)C(=O)N[C@H](C(=O)N[C@@H](CO)C(=O)N1CCC[C@H]1C(=O)N[C@@H](CCC(N)=O)C(=O)NCC(=O)N1C[C@H](O)C[C@H]1C(N)=O)[C@@H](C)CC)[C@@H](C)O)C(C)C)[C@@H](C)O [compound 350] (H-GCRFGTCTVQWLAHQIYQFTDKDKDNVAPRTKISPQG[Hyp]-NH2; disulfide 2-7; N-terminus assumed)	15.700
CC[C@H](C)[C@H](NC(=O)[C@H](CCC(N)=O)NC(=O)[C@H](Cc1c[nH]cn1)NC(=O)[C@H](C)NC(=O)[C@H](CC(C)C)NC(=O)[C@H](CCCNC(=N)N)NC(=O)[C@H](CCC(N)=O)NC(=O)[C@@H](NC(=O)[C@@H](NC(=O)[C@@H]1CSSC[C@H](NC(=O)CN)C(=O)N[C@@H](CCCNC(=N)N)C(=O)N[C@@H]([C@@H](C)O)C(=O)NCC(=O)N[C@@H]([C@@H](C)O)C(=O)N1)[C@@H](C)O)C(C)C)C(=O)N[C@@H](Cc1ccc(O)cc1)C(=O)N[C@@H](CCC(N)=O)C(=O)N[C@@H](Cc1ccccc1)C(=O)N[C@H](C(=O)N[C@@H](CC(=O)O)C(=O)N[C@@H](CCCCN)C(=O)N[C@@H](CC(=O)O)C(=O)N[C@@H](CCCCN)C(=O)N[C@@H](CC(=O)O)C(=O)N[C@@H](CC(N)=O)C(=O)N[C@H](C(=O)N[C@@H](C)C(=O)N1CCC[C@H]1C(=O)N[C@@H](CCCNC(=N)N)C(=O)N[C@@H](CO)C(=O)N[C@@H](CCCCN)C(=O)N[C@H](C(=O)N[C@@H](CO)C(=O)N1CCC[C@H]1C(=O)N[C@@H](CC(N)=O)C(=O)NCC(=O)N1C[C@H](O)C[C@H]1C(N)=O)C(C)C)C(C)C)[C@@H](C)O [compound 204] (H-GCRTGTCTVQRLAHQIYQFTDKDKDNVAPRSKVSPNG[Hyp]-NH2; disulfide 2-7; N-terminus assumed)	2.200
CC[C@H](C)[C@H](NC(=O)[C@H](CCC(N)=O)NC(=O)[C@H](Cc1c[nH]cn1)NC(=O)[C@H](C)NC(=O)[C@H](CC(C)C)NC(=O)[C@H](CCCNC(=N)N)NC(=O)[C@H](CCC(N)=O)NC(=O)[C@@H](NC(=O)[C@@H](NC(=O)[C@@H]1CSSC[C@H](NC(=O)CN)C(=O)N[C@@H](CCCNC(=N)N)C(=O)N[C@@H]([C@@H](C)O)C(=O)NCC(=O)N[C@@H]([C@@H](C)O)C(=O)N1)[C@@H](C)O)C(C)C)C(=O)N[C@@H](Cc1ccc(O)cc1)C(=O)N[C@@H](CCC(N)=O)C(=O)N[C@@H](Cc1ccccc1)C(=O)N[C@H](C(=O)N[C@@H](CC(=O)O)C(=O)N[C@@H](CCCCN)C(=O)N[C@@H](CC(=O)O)C(=O)N[C@@H](CCCCN)C(=O)N[C@@H](CC(=O)O)C(=O)N[C@@H](CC(N)=O)C(=O)N[C@H](C(=O)N[C@@H](C)C(=O)N1CCC[C@H]1C(=O)N[C@@H](CCCNC(=N)N)C(=O)N[C@H](C(=O)N[C@@H](CCCCN)C(=O)N[C@H](C(=O)N[C@@H](CO)C(=O)N1CCC[C@H]1C(=O)N[C@@H](CCC(N)=O)C(=O)NCC(=O)N1C[C@H](O)C[C@H]1C(N)=O)[C@@H](C)CC)[C@@H](C)O)C(C)C)[C@@H](C)O [compound 189] (H-GCRTGTCTVQRLAHQIYQFTDKDKDNVAPRTKISPQG[Hyp]-NH2; disulfide 2-7; N-terminus assumed)	6.000
CC[C@H](C)[C@@H]1NC(=O)[C@H](CCCNC(=N)N)NC(=O)[C@@H](NC(=O)CN)CSSC[C@@H](C(=O)N[C@H](C(=O)N[C@H](C(=O)N[C@@H](CCC(N)=O)C(=O)N[C@@H](CCCNC(=N)N)C(=O)N[C@@H](CC(C)C)C(=O)N[C@@H](C)C(=O)N[C@@H](Cc2c[nH]cn2)C(=O)N[C@@H](CCC(N)=O)C(=O)N[C@H](C(=O)N[C@@H](Cc2ccc(O)cc2)C(=O)N[C@@H](CCC(N)=O)C(=O)N[C@@H](Cc2ccccc2)C(=O)N[C@H](C(=O)N[C@@H](CC(N)=O)C(=O)N[C@@H](CCCCN)C(=O)N[C@@H](CC(=O)O)C(=O)N[C@@H](CCCCN)C(=O)N[C@@H](CC(=O)O)C(=O)N[C@@H](CC(N)=O)C(=O)N[C@H](C(=O)N[C@@H](C)C(=O)N2CCC[C@H]2C(=O)N[C@@H](CCCNC(=N)N)C(=O)N[C@@H](CO)C(=O)N[C@@H](CCCCN)C(=O)N[C@H](C(=O)N[C@@H](CO)C(=O)N2CCC[C@H]2C(=O)N[C@@H](CCC(N)=O)C(=O)N[C@H](C(=O)N2C[C@H](O)C[C@H]2C(N)=O)[C@@H](C)O)[C@@H](C)CC)C(C)C)[C@@H](C)O)[C@@H](C)CC)C(C)C)[C@@H](C)O)NC(=O)[C@H]([C@@H](C)O)NC(=O)CNC1=O [compound 198] (H-GCRIGTCTVQRLAHQIYQFTNKDKDNVAPRSKISPQT[Hyp]-NH2; disulfide 2-7; N-terminus assumed)	4.200
